Patent US20220388972A1, “CHROMAN-4-ONE DERIVATIVES FOR THE TREATMENT AND PROPHYLAXIS OF HEPATITIS B VIRUS INFECTION” (Hoffmann-La Roche Inc., priority 2018, published 2022)
pIC50: −log10 of the molar value.

What was measured:
[1] = system: HBV (extracellular HBsAg) in primary human hepatocytes; assay: Cryopreserved primary human hepatocytes (PHH) HBV infection assay, HBsAg; type: cell-based; conditions: Hepatitis B virus, Hepatocyte, 216 h, HBV-infected cryopreserved PHH, 9 days post-compound treatment, CLIA
Experimental: This assay is used to confirm the anti-HBV effect of the compounds in HBV PHH infection assay. Cryopreserved PHH (BioreclamationIVT, Lot YJM) was thawed at 37° C. and gently transferred into pre-warmed InVitroGRO HT medium (BioreclamationIVT, Cat. S03317).
The mixture was centrifuged at 70 relative centrifugal force (RCF) for 3 minutes at RT, and the supernatant was discarded. Pre-warmed InVitroGRO CP medium (BioreclamationIVT, Cat #S03316) was added to the cell pellet to gently re-suspend cells. The cells were seeded at the density of 5.8×10^4 cells per well to collagen I coated 96-well plate (Gibco, Cat. A1142803) with the InVitroGRO CP medium. All plates were incubated at 37° C. with 5% CO2 and 85% humidity.
At 20 hours after plating, the medium was changed to PHH culture medium (Dulbecco's Modified Eagle Medium (DMEM)/F12 (1:1) (Gibco, Cat. 11320-033), 10% fetal bovine serum (Gibco Cat. 10099141), 100 U/mL penicillin, 100 μg/mL streptomycin (Gibco, Cat. 151401-122), 5 ng/mL human epidermal growth factor (Invitrogen Cat. PHG0311L), 20 ng/mL dexamethasone (Sigma, Cat. D4902) and 250 ng/mL human recombinant insulin (Gibco, Cat. 12585-014)). And the cells were incubated at 37° C. with 5% CO2 and 85% humidity for 4 hours. The medium was then changed to pre-warmed PHH culture medium containing 4% polyethylene glycol (PEG) MW8000 (Sigma, Cat. P1458-50 ML) and 1% DMSO (Sigma, Cat. D2650). 5.8×10^6 genomic equivalents of HBV were added into the medium.
At 24 hours' post-infection, the cells were gently washed with PBS and refreshed with PHH culture medium supplemented with 1% DMSO, and 0.25 mg/mL Matrix gel (Corning, Cat. 356237) at 200 μL per well. All plates were immediately placed in at 37° C. CO2 incubator.
24 hours later, serial dilutions of compounds made with DMSO were further diluted with the same culture medium (PHH culture medium supplemented with 1% DMSO and 0.25 mg/mL Matrix gel as described above) before they were added to the cells to reach desired final compound concentrations and 1% DMSO concentration. The medium containing the compounds were refreshed every three days.
At 9 days' post-compound treatment, extracellular HBsAg level were measured with Chemiluminescence Immuno Assay (CLIA) kit (Autobio, HBsAg Quantitative CLIA).
HBsAg IC50 and HBV DNA IC50 values were derived from the dose-response curve using 4 parameters logistic curve fit method. The compounds of formula (I) have HBsAg IC50<20 μM, particularly <1 μM; and HBV DNA IC50<50 μM.

[2] = system: HBV cccDNA (HBeAg as surrogate marker) in HepDES19 cells; assay: Engineered HepDES19 primary screen assay (HBeAg as surrogate marker for cccDNA); type: cell-based; conditions: Hepatitis B virus, HepDES19, 120 h
Source text: The assay was employed to screen for cccDNA inhibitors. HepDES19 is a cccDNA-producing cell line. In this cell line, HBeAg in the cell culture supernatant as surrogate marker, as HBeAg production depends on cccDNA level and activity. HepDES19 is an engineered cell line which contains a 1.1 unit length HBV genome, and pgRNA transcription from the transgene is controlled by Tetracycline (Tet). In the absence of Tet, pgRNA transcription will be induced, but HBV e antigen (HBeAg) could not be produced from this pgRNA due to very short leader sequence before the HBeAg start codon and the start codon is disrupted. Only after cccDNA is formed, the missing leader sequence and start codon mutation would be restored from the 3′-terminal redundancy of pgRNA, and then HBeAg could be synthesized. Therefore, HBeAg could be used as a surrogate marker for cccDNA (Zhou, T. et al., Antiviral Res. (2006), 72 (2), 116-124; Guo, H. et al., J. Virol. (2007), 81 (22), 12472-12484).
HepDES19 cells were seeded at 2×10^6 cells per T150 flask and cultured with the culture medium (Dulbecco's Modified Eagle Medium: Nutrient Mixture F-12 [DMEM-F12, Gibco Cat. 11320-82], 10% Fetal Bovine Serum [FBS, Clontech Cat. 631101], 0.1 mM Non-Essential Amino Acids Solution [NEAA, Gibco Cat. 11140-050], 50 μg/mL Penicillin-Streptomycin [PS, Invitrogen Cat. 15140-163], 500 μg/mL Geneticin [G418, Invitrogen Cat. 10131-027]) containing 3 μg/mL Tet (Sigma, Cat. 87128) for 5 days. Cells were then seeded at 4×10^6 cells per T150 in the same culture medium as described above in the absence of Tet for 8 days. Cells were then harvested and frozen at density of 2×10^6 cells per mL. For compound testing, the frozen cells were thawed and seeded into 96-well plates at a density of 6×10^4 cells per well. At 24 hours after seeding, half log serial dilutions of compounds made with Dimethyl sulfoxide (DMSO, Sigma, Cat. D2650) were further diluted with the same culture medium as described above before they were added to the cells to reach desired final compound concentrations and 1% DMSO concentration. Plates were then incubated at 37° C. for another 5 days before measurement of HBeAg level and cell viability. Intracellular HBeAg level were measured with enzyme-linked immunosorbent assay (ELISA) kit (Shanghai Kehua Diagnostic Medical Products Co., Ltd). Cell viability was assessed using Cell Counting Kit-8 (DonJindo, Cat. CK04-20). IC50 values were derived from the dose-response curve using 4 parameters logistic curve fit method.
The compounds of the present invention were tested for their capacity to inhibit extracellular HBeAg level as described herein.

## O=C(O)CCOc1cc(C(F)(F)F)ccc1C1CC(=O)c2cccc(Cl)c2O1 (stereo not drawn) [Example 1, 3-[2-(8-chloro-4-oxo-chroman-2-yl)-5-(trifluoromethyl)phenoxy]propanoic Acid]
[1]
  pIC50: 5.27
[2]
  pIC50: 6.14

## O=C(O)CCOc1cc(C(F)(F)F)ccc1C1CC(=O)c2ccc(F)c(Cl)c2O1 (stereo not drawn) [Example 2, 3-[2-(8-chloro-7-fluoro-4-oxo-chroman-2-yl)-5-(trifluoromethyl)phenoxy]propanoic Acid]
[1]
  pIC50: 5.36
[2]
  pIC50: 5.71

## O=C(O)CCOc1cc(C(F)(F)F)ccc1C1CC(=O)c2cc(F)cc(Cl)c2O1 (stereo not drawn) [Example 3, 3-[2-(8-chloro-6-fluoro-4-oxo-chroman-2-yl)-5-(trifluoromethyl)phenoxy]propanoic Acid]
[1]
  pIC50: 4.95
[2]
  pIC50: 5.25

## COc1cc(C2CC(=O)c3cccc(Cl)c3O2)c(OCCC(=O)O)cc1C(F)(F)F (stereo not drawn) [Example 11, 3-[2-(8-chloro-4-oxo-chroman-2-yl)-4-methoxy-5-(trifluoromethyl)phenoxy]propanoic Acid]
[1]
  pIC50: 5.08
[2]
  pIC50: 5.29

## O=C(O)CCOc1cc(OC(F)(F)F)ccc1C1CC(=O)c2cccc(Cl)c2O1 (stereo not drawn) [Example 13, 3-[2-(8-chloro-4-oxo-chroman-2-yl)-5-(trifluoromethoxy)phenoxy]propanoic Acid]
[1]
  pIC50: 5.16
[2]
  pIC50: 6.41

## COCCCOc1cc(C(F)(F)F)ccc1C1CC(=O)c2ccc(F)c(Cl)c2O1 (stereo not drawn) [Example 32, 8-chloro-7-fluoro-2-[2-(3-methoxypropoxy)-4-(trifluoromethyl)phenyl]chroman-4-one]
[2]
  pIC50: 5.71

## O=C1CC(c2ccc(C(F)(F)F)cc2OCCCO)Oc2c1ccc(F)c2Cl (stereo not drawn) [Example 33, 8-chloro-7-fluoro-2-[2-(3-hydroxypropoxy)-4-(trifluoromethyl)phenyl]chroman-4-one]
[2]
  pIC50: 6.17

## O=C1CC(c2ccc(C(F)(F)F)cc2OCCO)Oc2c1ccc(F)c2Cl (stereo not drawn) [Example 34, 8-chloro-7-fluoro-2-[2-(2-hydroxyethoxy)-4-(trifluoromethyl)phenyl]chroman-4-one]
[2]
  pIC50: 5.47

## O=C(O)C(=O)NCCOc1cc(Cl)ccc1C1CC(=O)c2cccc(Cl)c2O1 (stereo not drawn) [Example 36, 2-[2-[5-chloro-2-(8-chloro-4-oxo-chroman-2-yl)phenoxy]ethylamino]-2-oxo-acetic Acid]
[2]
  pIC50: 4.89

## O=C1CC(c2ccc(Br)cc2O[C@H]2C[C@@H](C(=O)O)C2)Oc2c(Cl)cccc21 (stereo partly drawn) [Example 37, cis-3-[5-bromo-2-(8-chloro-4-oxo-chroman-2-yl)phenoxy]cyclobutanecarboxylic Acid]
[2]
  pIC50: 6.17
